Measurements: ChEMBL document CHEMBL3872239, “Studies relating to the synthesis, enzymatic reduction and cytotoxicity of a series of nitroaromatic prodrugs” (Bioorg Med Chem Lett, 2016)

Tests used:
[1] = Drug metabolism assessed as Escherichia coli NR-mediated compound reduction by measuring specific enzyme activity at 100 uM measured every 20 mins by HPLC based UV-Vis method; assay type: ADME
[2] = Cytotoxicity against Chinese hamster T116 cells expressing Escherichia coli Nitroreductase assessed as reduction in cell viability after 3 days by SRB assay; assay type: functional, Cricetulus griseus
[3] = Cytotoxicity against Chinese hamster 186/6 cells expressing rat NQO1 assessed as reduction in cell viability after 3 days by SRB assay; assay type: functional, cell-based, Cricetulus griseus
[4] = biological target: T1, NAD(P)H dehydrogenase [quinone] 1 (Homo sapiens, UniProt P15559); assay: Drug metabolism assessed as human NQO1-mediated compound reduction by measuring specific enzyme activity at 100 uM measured every 20 mins by HPLC based UV-Vis method; assay type: ADME
[5] = Cytotoxicity against Chinese hamster DT7 cells expressing human NQO1 assessed as reduction in cell viability after 3 days by SRB assay; assay type: functional, cell-based, Cricetulus griseus
[6] = Cytotoxicity against Chinese hamster F179 transformed cells assessed as reduction in cell viability after 3 days by SRB assay; assay type: toxicity, cell-based, Cricetulus griseus
[7] = Prodrug activation assessed as Escherichia coli NR-mediated compound reduction by measuring specific enzyme activity at 100 uM measured every 20 mins by HPLC based UV-vis method relative to CB1954
[8] = biological target: T1, NAD(P)H dehydrogenase [quinone] 1; assay: Prodrug activation assessed as human NQO1-mediated compound reduction by measuring specific enzyme activity at 100 uM measured every 20 mins by HPLC based UV-Vis method
[9] = Prodrug activation assessed as Escherichia coli NR-mediated compound reduction by measuring specific enzyme activity at 100 uM measured every 20 mins by HPLC based UV-Vis method
[10] = biological target: T1, NAD(P)H dehydrogenase [quinone] 1; assay: Prodrug activation assessed as human NQO1-mediated compound reduction by measuring specific enzyme activity at 100 uM measured every 20 mins by HPLC based UV-Vis method relative to CB1954

T1 sequence (P15559 whole entry): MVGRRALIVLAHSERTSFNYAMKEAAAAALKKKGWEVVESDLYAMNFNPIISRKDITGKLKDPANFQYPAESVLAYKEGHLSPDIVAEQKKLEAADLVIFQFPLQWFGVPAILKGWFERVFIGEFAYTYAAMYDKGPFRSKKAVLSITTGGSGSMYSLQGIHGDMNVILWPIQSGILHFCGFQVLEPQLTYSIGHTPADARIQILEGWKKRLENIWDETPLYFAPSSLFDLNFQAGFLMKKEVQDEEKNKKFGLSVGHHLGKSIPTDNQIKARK

fold change (FC) [7] | Activity [8] | Activity [9] | fold change (FC) [10] | Structure (SMILES) | Activity [1] | IC50 [2] | IC50 [3] | Activity [4] | IC50 [5] | IC50 [6]
 |  |  |  | NC(=O)c1cc(N2CC2)c([N+](=O)[O-])cc1[N+](=O)[O-] [TRETAZICAR] | 1.86 µmol/min/mg | 0.03 µM | 0.05 µM | 0.0062 µmol/min/mg | 1.5 µM | 196 µM
< 0.001 | < 0.0001 µmol/min/mg | < 0.01 µmol/min/mg | < 0.01 | O=[N+]([O-])c1ccc(N2Cc3ccccc3CC2CCl)cc1 (stereo unspecified) |  | 3.1 µM | 2.9 µM |  | 2.8 µM | 3.3 µM
< 0.001 | 0.0177 µmol/min/mg | < 0.01 µmol/min/mg | 2.855 | O=[N+]([O-])c1cc(C(F)(F)F)ccc1N1Cc2ccccc2CC1CCl (stereo unspecified) |  | 39.1 µM | 34.4 µM |  | 31.2 µM | 36.6 µM
0.089 | 0.027 µmol/min/mg | 0.166 µmol/min/mg | 4.355 | O=[N+]([O-])c1ccc(N2Cc3ccccc3CC2CCl)c(C(F)(F)F)c1 (stereo unspecified) |  | 3.1 µM | 22.6 µM |  | 27.5 µM | 37.8 µM
0.137 | 0.0033 µmol/min/mg | 0.254 µmol/min/mg | 0.532 | O=[N+]([O-])c1ccc(N2Cc3ccccc3CC2CCl)c([N+](=O)[O-])c1 (stereo unspecified) |  | 1.2 µM | 36.6 µM |  | 43.1 µM | 49 µM

Structure (SMILES) | fold change (FC) [7] | Activity [8] | Activity [9] | fold change (FC) [10] | Activity [1] | IC50 [2] | IC50 [3] | Activity [4] | IC50 [5] | IC50 [6]
O=[N+]([O-])c1ccc(N2Cc3ccccc3CC2CCl)cc1C(F)(F)F (stereo unspecified) | 0.057 | 0.012 µmol/min/mg | 0.106 µmol/min/mg | 1.936 |  | 2.9 µM | 5.8 µM |  | 5.9 µM | 7.3 µM
